Patent US5597703A, “Methods for determing cholesterol oxidase activity in an aqueous test sample, determining whether a test compound is capable of inhibiting cholesterol oxidase activity and determining the degree of cholesterol oxidase inhibitory activity” (priority 1994, dated 1997)

Tested on: cholesterol oxidase
Experiment: estimating the toxicity of chemical compounds by presence or absence of sterol domain fade-out in a monolayer on cholesterol oxidase aqueous solution
Assay type: biochemical
Conditions: cholesterol oxidase 5×10^-3 unit/ml
[1] = 1 mM test compound, monolayer DMPC 0.68 mM / cholesterol 0.3 mM / NBD-PC 0.02 mM

Protocol: In the first embodiment of the method for estimating the toxicity of chemical compounds, there is used cholesterol oxidase HEPES buffer solution of 5×10^-3 unit/ml as the cholesterol oxidase aqueous solution 12. Herein, HEPES means N-2-hydroxyethylpiperazine-N'-2-ethane sulfonic acid which has 0.1 of ionic strength and 7.45 of pH. […] As the monolayer spread solution 13, there is used a solution consisting of 0.68 mM of DMPC (L-α-dimyristoylphosphatidylcholine), 0.3 mM of cholesterol and 0.02 mM of fluorescent dye labeled phospholipid NBD-PC (1-palmitoyl-2-[12-[(7-nitro-2-1,3-benzoxadiazol-4-yl) amino]dodecanoyl]phosphatidylcholine) chloroform. The monolayer spread solution 13 is dropped in the amount of 9.4 ml thereof onto a surface (42.6 cm^2) of the cholesterol oxidase aqueous solution 12 in which 1 mM of zinc chloride is dissolved, and then there is immediately formed a monolayer on the surface.
In the second embodiment, there is used cholesterol oxidase HEPES buffer solution of 5×10^-3 unit/ml as the cholesterol oxidase aqueous solution 12. In the HEPES solution is dissolved 1 mM of calcium chloride the toxicity of which is to be estimated. As the monolayer spread solution 13, there is used a solution consisting of 0.68 mM of DMPC (L-α-dimyristoylphosphatidylcholine), 0.3 mM of cholesterol and 0.02 mM of fluorescent dye labeled phospholipid NBD-PC (1-palmitoyl-2-[12-[(7-nitro-2-1,3-benzoxadiazol-4-yl)amino]dodecanoyl]phosphatyzircoline) chloroform. Similarly to the first embodiment, the monolayer spread solution 13 is dropped onto a surface of the cholesterol oxidase aqueous solution 12, and then there is immediately formed a monolayer on the surface.
In the third embodiment, there is used cholesterol oxidase HEPES buffer solution of 5×10^-3 unit/ ml as the cholesterol oxidase aqueous solution 12. […] As the monolayer spread solution 13, there is used a solution consisting of 0.68 mM of DPPC (L-α-dipalmitoylphosphatidylcholine), 0.3 mM of dihydrocholesterol and 0.02 mM of fluorescent dye labeled phospholipid NBD-PE (1-palmitoyl-2-[12-[(7-nitro-2-1,3-benzoxadiazol-4-yl) amino]dodecanoyl]phosphatidylethanolamine) chloroform. Similarly to the first embodiment, there is formed a monolayer on a surface of the cholesterol oxidase aqueous solution 12 by dropping the monolayer spread solution 13 as above mentioned on the surface.
In the fourth embodiment, there is used cholesterol oxidase HEPES buffer solution of 5×10^-3 unit/ml as the cholesterol oxidase aqueous solution 12. […] As the monolayer spread solution 13, there is used a solution consisting of 0.68 mM of DPPE (L-α-tdipalmitoylphosphatidylethanolamine), 0.3 mM of pregnenolone and 0.02 mM of fluorescent dye labeled phospholipid TR-DPPE (N-(texasredsulfonyl)-L-α-dipalmitoylphosphatidylethanolamine) chloroform.

SMILES | toxicity to cholesterol oxidase (sterol domain fade-out 30 minutes after monolayer formation) [1] | further results
[Cl-].[Cl-].[Zn+2] [zinc chloride] | toxic to cholesterol oxidase | 
CCCCCCCCCCCCOS(=O)(=O)[O-].[Na+] [SDS, sodium dodecyl sulfate] |  | toxicity to cholesterol oxidase (sterol domain fade-out 30 minutes after monolayer formation) (0.1 mM test compound, monolayer DPPE 0.68 mM / pregnenolone 0.3 mM / TR-DPPE 0.02 mM): has the toxicity to cholesterol oxidase
[Ca+2].[Cl-].[Cl-] [calcium chloride] | not toxic to cholesterol oxidase | 
[Cl][Hg][Cl] [mercury (II) chloride] |  | toxicity to cholesterol oxidase (sterol domain fade-out 30 minutes after monolayer formation) (1 mM test compound, monolayer DPPC 0.68 mM / dihydrocholesterol 0.3 mM / NBD-PE 0.02 mM): has the toxicity to cholesterol oxidase
